Measurements: patent US20040024293A1, “Methods and systems for analyzing complex biological systems” (priority 2001, published 2004)

Columns and labels:
Arabidopsis thaliana = experiment: Phenotypic profiling of Arabidopsis sprayed with unknown and commercial herbicides (MOA1); format: in vivo
[1] = test system: Saccharomyces cerevisiae wild type strain BY4743; experiment: Combined gene expression and metabolite data mapped to KEGG reactions and pathways (AF1); format: cell-based; conditions: yeast
Source text: In AF1, two different technologies were utilized: gene expression analysis (for examination of mRNA expression) and metabolite analysis. […] As noted previously, existing metabolic databases may be helpful in practicing the methods and systems of the present invention, but many databases include limitations that make their use in data analysis and pathway mapping less than straightforward. […] This caveat to KEGG makes it difficult to pinpoint the correct pathway when attempting to link a gene to a specific pathway. […] The pathway score indicates how meaningful the mapping is, or how likely it is to be correctly indicative of the pathway involved in the perturbation under examination. The method provides a pathway score based on perturbation levels of genes. and/or compounds and the information content of each gene and/or compound in the pathway, i.e., a pathway score indicates the extent to which other pathways are mapped to a gene/compound. For example, imagine that two genes are perturbed in a particular experiment. One gene maps to only one pathway, giving a high degree of probability that the perturbed pathway is the one identified in the mapping. The second gene maps to three pathways. In the later example, there is only one-third the probability that the pathway identified in the mapping is the one perturbed. The present invention provides a method for calculating the pathway scores, so that more weight is given to a score of a gene or compound that maps to only one pathway than to a score of a gene or compound that maps to multiple pathways. […] Where n=the total number of genes in the pathway; ipath—count=the number of pathways containing a gene; and j=the number of genes in the pathway that are perturbed. Another factor to be considered when weighting a pathway score is the degree of perturbation. Degree of perturbation can be calculated, for example, based on a number of standard deviations from a norm, and included in an equation such as the one shown above, so that not only the number of pathways is taken into account, but also accounts for the amount of gene transcript or compound present as compared to a control. Compounds were also linked to pathways using the KEGG database. KEGG links 676 compounds measured in AF1 to a total of 92 pathways. Of the 676 compounds under consideration, 77 were detected in the AF1 samples. […] The multiple mapping feature of KEGG makes it difficult to pinpoint the correct pathway when trying to link a compound to a specific pathway. […] A pathway score calculation is applied to the compounds to account for both information content (number of pathways a compound maps to) and perturbation level. […]

[2] = test system: Saccharomyces cerevisiae wild type strain BY4743; experiment: Gene expression analysis of yeast cells treated with antifungal drugs (AF1); format: cell-based; conditions: p < 0.05; KEGG pathway mapping of gene expression data
Procedure: Saccharomyces cerevisiae wild type strain BY4743 was purchased from American Type Culture Center (ATCC, Manassas, Va.). The yeast strain was grown in YPD or SD media. […] The cultures started from fresh single colonies were grown in 1.0 ml YPD overnight at 30° C. […] The OD600 was adjusted to 1.0 with YPD media, then 2.0 ml of each was inoculated into three 250 ml flasks, each containing 50 ml of SD media. […] The cells were kept growing for another two hours, then collected by centrifugation at 4000 rpm for 5 minutes at 4° C. Pellets were washed once with ice-cold water, then were lyophilized overnight at 4° C. […] RNA quality was determined using the Bioanalyzer 2100 and the RNA 6000 assay (Agilent Technologies, Palo Alto, Calif.) according to manufacturer's instructions. RNA concentrations were determined spectrophotometrically by measuring the absorption at 260 nm in an Ultrospec 2000 (Pharmacia Biotech, Piscataway, N.J.). […] Labeled cRNAs were evaluated using the RNA 6000 assay on the Agilent Bioanalyzer 2100. Labeled cRNA concentrations were determined spectrophotometrically by measuring the absorption at 260 nm in an Ultrospec 2000 (Pharmacia Biotech, Piscataway, N.J.). […] Each feature was determined from an array's associated pattern file and a detection algorithm. […] Data was evaluated after combining results from fluor reversal replicate hybridizations. […]

[3] = test system: Saccharomyces cerevisiae wild type strain BY4743; experiment: Metabolite analysis (GC-MS, LC-MS) of yeast cells treated with antifungal drugs (AF1); format: cell-based; conditions: for Fold Change of NacetylDglucosamine: metabolite NacetylDglucosamine; for Fold Change of phosphoenolpyruvate: metabolite phosphoenolpyruvate; for Fold Change of thymine: metabolite thymine; for Fold Change of urocanic acid: metabolite urocanic acid; for Fold Change of zeatin: metabolite zeatin

SMILES: Nc1nc[nH]n1 [Amitrole]
- herbicidal phenotype in words (Arabidopsis thaliana): chlorosis and not true bleaching

SMILES: CCSC(=O)N(CC(C)C)CC(C)C [Butylate]
- herbicidal phenotype in words (Arabidopsis thaliana): neither showed a strong herbicidal phenotype

SMILES: C[C@@H]1[C@H](O)[C@@H](C)/C=C/C=C/C=C/C=C/C=C/C=C/C=C/[C@H](O[C@@H]2O[C@H](C)[C@@H](O)[C@H](N)[C@@H]2O)C[C@@H]2O[C@](O)(C[C@@H](O)C[C@@H](O)[C@H](O)CC[C@@H](O)C[C@@H](O)CC(=O)O[C@H]1C)C[C@H](O)[C@H]2C(=O)O [Amphoteracin B]
- # Reactions (Number Of Pathways Having at Least One Enzyme and One Compound Perturbed) [1]: 37
- # Pathways affected by at least one gene [2]: 97

SMILES: CC(C)OC(=O)Nc1cccc(Cl)c1 [Chloropropham]
- herbicidal phenotype in words (Arabidopsis thaliana): neither showed a strong herbicidal phenotype

SMILES: CC[C@@H]([C@H](C)O)n1ncn(-c2ccc(N3CCN(c4ccc(OC[C@@H]5CO[C@@](Cn6cncn6)(c6ccc(F)cc6F)C5)cc4)CC3)cc2)c1=O [Posaconazole]
- # Reactions (Number Of Pathways Having at Least One Enzyme and One Compound Perturbed) [1]: 3
- Fold Change: aspartic acid ([3]; GC): −0.071
- Fold Change: campesterol ([3]; GC): 0
- Fold Change: desmosterol ([3]; GC): 0
- Fold Change: iso citric acid ([3]; GC): 0.4
- Fold Change of NacetylDglucosamine ([3]; platform nLC, p-Value 1): 0
- Fold Change of NacetylDglucosamine ([3]; platform pLC, p-Value 1): 0
- Fold Change of NacetylLglutamate ([3]; metabolite NacetylLglutamate, platform pLC, p-Value 1): 0
- Fold Change of NacetylLornithine ([3]; metabolite NacetylLornithine, platform nLC, p-Value 1): 0
- Fold Change of niacinamide ([3]; metabolite niacinamide, platform pLC, p-Value 1): 0
- Fold Change of nopaline ([3]; metabolite nopaline, platform pLC, p-Value 1): 0
- Fold Change of ornithine3 ([3]; metabolite ornithine3, platform GC, p-Value 0.965157424): 0.041
- Fold Change of orotic acid ([3]; metabolite orotic acid, platform nLC, p-Value 1): 0
- Fold Change of phenylpyruvic acid ([3]; metabolite phenylpyruvic acid, platform nLC, p-Value 1): 0
- Fold Change of phosphoenolpyruvate ([3]; platform nLC, p-Value 1): 0
- Fold Change of phosphoenolpyruvate ([3]; platform pLC, p-Value 1): 0
- Fold Change of pinitol ([3]; metabolite pinitol, platform nLC, p-Value 1): 0
- Fold Change of porphobilinogen ([3]; metabolite porphobilinogen, platform nLC, p-Value 1): 0
- Fold Change of progesterone ([3]; metabolite progesterone, platform pLC, p-Value 1): 0
- Fold Change of retinoic acid ([3]; metabolite retinoic acid, platform nLC, p-Value 1): 0
- Fold Change of riboflavin ([3]; metabolite riboflavin, platform pLC, p-Value 1): 0
- Fold Change of salicylic/HObenzoic ([3]; metabolite salicylic/HObenzoic, platform nLC, p-Value 1): 0
- Fold Change of shikimic acid ([3]; metabolite shikimic acid, platform nLC, p-Value 1): 0
- Fold Change of sinapinic acid ([3]; metabolite sinapinic acid, platform nLC, p-Value 1): 0
- Fold Change of sugar-phosphate ([3]; metabolite sugar-phosphate, platform pLC, p-Value 1): 0
- Fold Change of thiamine ([3]; metabolite thiamine, platform pLC, p-Value 1): 0
- Fold Change of thymine ([3]; platform nLC, p-Value 1): 0
- Fold Change of thymine ([3]; platform pLC, p-Value 1): 0
- Fold Change of tryptophan ([3]; metabolite tryptophan, platform pLC, p-Value 1): 0
- Fold Change of uric acid ([3]; metabolite uric acid, platform pLC, p-Value 1): 0
- Fold Change of urocanic acid ([3]; platform nLC, p-Value 1): 0
- Fold Change of urocanic acid ([3]; platform pLC, p-Value 1): 0
- Fold Change of xanthosine(diH2O) ([3]; metabolite xanthosine(diH2O), platform pLC, p-Value 1): 0
- Fold Change of xanthosineDiH2O ([3]; metabolite xanthosineDiH2O, platform nLC, p-Value 1): 0
- Fold Change of zeatin ([3]; platform nLC, p-Value 1): 0
- Fold Change of zeatin ([3]; platform pLC, p-Value 1): 0
- Fold Change: 4-methylcatechol ([3]; nLC): 0
- Fold Change: 5hydroxyLtryptophan ([3]; nLC): 0
- Fold Change: 6-benzylaminopurine ([3]; nLC): 0
- Fold Change: abscisic acid ([3]; nLC): 0
- Fold Change: adenine ([3]; nLC): 0
- Fold Change: anthranilic acid ([3]; nLC): 0
- Fold Change: benzoic acid ([3]; nLC): 0
- Fold Change: catechol ([3]; nLC): 0
- Fold Change: cinnamic acid ([3]; nLC): 0
- Fold Change: citricanoic/itaconi ([3]; nLC): 0
- Fold Change: coumaric acid ([3]; nLC): 0
- Fold Change: cytosine ([3]; nLC): 0
- Fold Change: diaminopimelic acid ([3]; nLC): 0
- Fold Change: dihydrofolic acid ([3]; nLC): 0
- Fold Change: estrone ([3]; nLC): 0
- Fold Change: farnesol ([3]; nLC): 0
- Fold Change: folic acid ([3]; nLC): 0
- Fold Change: gibberellic ([3]; nLC): 0
- Fold Change: guanine ([3]; nLC): 0
- Fold Change: histidine ([3]; nLC): 0
- Fold Change: homogentisic/uric ([3]; nLC): 0
- Fold Change: hydrocortisone ([3]; nLC): 0
- Fold Change: indole3pyruvic acid ([3]; nLC): 0
- Fold Change: jasmonic acid ([3]; nLC): 0
- Fold Change: kinetin ([3]; nLC): 0
- Fold Change: luteolin ([3]; nLC): 0
- Fold Change: malonic acid ([3]; nLC): 0
- Fold Change: methionine ([3]; nLC): 0
- Fold Change: 4-aminobenzoic acid ([3]; pLC): 0
- Fold Change: 4-methylcatechol ([3]; pLC): 0
- Fold Change: 5hydroxyLtryptophan ([3]; pLC): 0
- Fold Change: 6benzylaminopurine ([3]; pLC): 0
- Fold Change: abscisic acid ([3]; pLC): 0
- Fold Change: adenosine ([3]; pLC): 0
- Fold Change: allantoic acid ([3]; pLC): 0
- Fold Change: anthranilic acid ([3]; pLC): 0
- Fold Change: argininosuccinate ([3]; pLC): 0
- Fold Change: biotin ([3]; pLC): 0
- Fold Change: caffeine ([3]; pLC): 0
- Fold Change: citric acid TME ([3]; pLC): 0
- Fold Change: cytidine ([3]; pLC): 0
- Fold Change: diaminopimelic acid ([3]; pLC): 0
- Fold Change: dihydrofolic acid ([3]; pLC): 0
- Fold Change: dipicolinic acid ([3]; pLC): 0
- Fold Change: folic acid ([3]; pLC): 0
- Fold Change: glucosamine ([3]; pLC): 0
- Fold Change: glucosamine6PO4 ([3]; pLC): 0
- Fold Change: histidine ([3]; pLC): 0
- Fold Change: hydrocortisone ([3]; pLC): 0
- Fold Change: itaconic acid dimes ([3]; pLC): 0
- Fold Change: kinetin ([3]; pLC): 0
- Fold Change: luteolin ([3]; pLC): 0
